Source: the METLIN SMRT retention time set (Domingo-Almenara et al. 2019)

Test: gradient 5% acetonitrile 3 min, to 50% in 2 min, to 85% in 15 min, held 3 min, 100 µL/min
Conditions: column: Zorbax Extend-C18 2.1 x 50 mm; eluents: water / acetonitrile, 0.1% formic acid
Procedure, shortened: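 Data were gathered over 3 months by HPLC coupled to a quadrupole time-of-flight mass spectrometer, operated in positive and negative ionization mode. Mixtures of ~100 pure standards ran on a Zorbax Extend-C18 column (2.1 × 50 mm, 1.8 μm) at 100 μL/min, with water and acetonitrile each containing 0.1% formic acid and dead and dwell volumes of 40 μL and 900 μL. Retention time was read from adduct peaks picked by computer and checked manually.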

| SMILES | RP-LC retention time [s] |
| --- | --- |
| CCOc1ccc(Nc2c(-c3ccc(N(C)C)cc3)nc3cnccn23)cc1 | 813 |
| O=C(NCCn1cnc2ccccc2c1=O)C1CC(=O)N(c2n[nH]c3ccccc23)C1 (centres undefined) | 632 |
| CCc1cc(=O)n(Cc2ccccc2C#N)c(N2CCCC2)n1 | 696 |
| Cc1ccc(Nc2c(-c3ccc(N(C)C)cc3)nc3ncccn23)cc1C | 792 |
| CCCN(C)c1nccn2c(=O)n(CC(=O)Nc3ccc(Cl)cc3F)nc12 | 735 |
| CSc1ccccc1NC(=O)c1nnn(-c2nc3c(s2)CCCC3)c1C | 972 |
| CCCCNC(=O)C1CCN(Cc2cn(C)c3ccc(Cl)cc23)CC1 | 667 |
| Cc1ccc(C)c(C(=O)N2CCN(c3cc(C)nc(N4CCOCC4)n3)CC2)c1 | 637 |
| CC(C)NC(=O)N1CCNC(=O)C1 | 540 |
| COc1ccc(Nc2c(C(=O)N3CCC(C)CC3)cnc3nc(C)ccc23)cc1 | 638 |
| Cc1nn(CC(=O)N2CCCCCC2)c(=O)c2nc(-c3ccccc3)sc12 | 872 |
| Cc1ccnc(Nc2nc(C)c(C(=O)N3CCOCC3)s2)c1 | 617 |
| CCOC(=O)c1c(S(=O)(=O)NCCN2CCc3ccccc3C2)c(C)n(C)c1C | 675 |
| Cc1noc(/C=C/c2ccc(S(=O)(=O)NCC3CCCO3)s2)c1NC(=O)C1CC1 (centres undefined) | 677 |
| CC(C)n1cc(C#N)c(N)n1 | 658 |
| CCCCS(=O)(=O)N1CC[C@H](CN(C)C(C)=O)[C@H](N(C)C)C1 | 584 |
| CNCC[C@H](Oc1ccc(C(F)(F)F)cc1)c1ccccc1 | 818 |
| CCc1cc(=O)n(CC(=O)N2CCN(c3ccc(OC)cc3)CC2)c(N2CCOCC2)n1 | 668 |
| CCOc1ccc(-n2nnc(-c3nc(-c4ccc(C(C)C)cc4)cs3)c2N)cc1 | 1350 |
| COc1ccc(OC)c(NC(=O)C2CCCN2S(=O)(=O)c2cc3c(cc2Cl)NC(=O)CO3)c1 (centres undefined) | 829 |
| Cc1cc(C)cc(NC(=O)Cn2nc3c(N(C)C4CCCCC4)nccn3c2=O)c1 | 846 |
| COC1CCC12CCN(C(=O)c1ocnc1C)CC2 (centres undefined) | 692 |
| Cc1ccc(CNC(=O)N2CCC(C(=O)NCc3csc(C)n3)CC2)cc1 | 661 |

| SMILES | RP-LC retention time [s] |
| --- | --- |
| O=C(CN1C(=O)c2ccccc2C1=O)N1CCc2ccccc2C1 | 755 |
| CCCCNC(=O)Cc1c(OC)ccc2cc(Br)ccc12 | 947 |
| Cc1noc(C)c1CCC(=O)Nc1ccccc1NC(=O)c1ccsc1 | 720 |
| Cc1nnc(-c2coc(S(=O)(=O)N3CCN(C4CCCCC4)CC3)c2)o1 | 615 |
| Cc1csc(NC(=O)c2ccc(N3CCCC3)nn2)n1 | 626 |
| Cn1nc(C(=O)N2CCCC2)c2c1CCN(C(=O)CCC(=O)NC1CCCCC1)C2 | 664 |
| COc1ccc(-c2nnc(COc3ccc(NC(=O)c4n[nH]c5c4CCCC5)cc3)o2)cc1 | 907 |
| O=C(NC1CC1)C1CCN(S(=O)(=O)Cc2ccc(F)cc2)CC1 | 929 |
| CS(=O)(=O)N1CCC(C(=O)Nc2ccc3c(c2)N(C(=O)C2CCCO2)CC3)CC1 (centres undefined) | 631 |
| Cc1cnc(C2CCC2)n1CC1CCN(C(=O)NC2CCCCC2)CC1 | 657 |
| O=C(O)CSc1ccc(NC(=O)Nc2ccccc2F)cc1 | 842 |
| Cn1c(=O)c(=O)n(C)c2cc(N3CCCCC3)c(NC(=O)CN3CCCCC3)cc21 | 592 |
| O=C(Cc1c(Sc2cccc(F)c2)[nH]c2ccccc12)N1CCN(c2ncccn2)CC1 | 975 |
| COc1ccc(-c2nnc3n2N=C(c2ccc([N+](=O)[O-])cc2)CS3)cc1OC | 723 |
| COC(=O)c1ccccc1NC(=O)Cn1cnc2nc(-c3ccc(OC)cc3)ncc2c1=O | 925 |
| O=C(Nc1ccccc1Cl)c1cnc(-c2ccc(F)cc2)nc1-c1ccncc1 | 1000 |
| CC(=O)N1CCC(c2nc(-c3ccc4c(c3)ncn4CCN3CCCC3)no2)CC1 | 553 |
| CN(Cc1ccco1)C(=O)C1CCCN(c2nc3cccnc3s2)C1 (centres undefined) | 745 |
| CCCCNC1(c2cc3ccccc3s2)CCCCC1 | 831 |
| Cc1noc(CNC(=O)CSCc2ccccc2)n1 | 684 |
| Cc1ccc(-c2noc(CSc3nc4cc5c(cc4c(=O)n3C3CC3)OCO5)n2)cc1 | 874 |
| CCn1c(=O)c(N2CCCC(C(=O)N3CCCCCC3)C2)nc2cccnc21 (centres undefined) | 1000 |

Results, then the compound that gave them:

| RP-LC retention time [s] | SMILES |
| --- | --- |
| 1060 | Cc1ccc(-c2cc3c4nnc(SCC(=O)Nc5cccc(Cl)c5C)n4ccn3n2)cc1C |
| 945 | Cc1cccc(S(=O)(=O)N2C[C@H]3CN(S(=O)(=O)c4ccc(C#N)cc4)C[C@@H](C2)O3)c1 |
| 820 | Cc1ccc(NC(=O)N2C[C@H](c3nc(-c4cccnc4)no3)[C@@H](C)C2)cc1 |
| 1270 | Cc1ccc(-c2csc(-n3nc(C)c(CC(=O)N4CCCCCC4)c3C)n2)cc1 |
| 682 | CC(=O)c1cccc(NC(=O)Cn2c(=O)nc(NC3CCCC3)c3ccccc32)c1 |
| 804 | Cc1ccccc1Nc1c(-c2ccc(Cl)cc2)nc2cccc(C)n12 |
| 786 | Cc1nc(-c2cccnc2)n2c(=O)n(CCc3ccccc3)nc2c1C |
| 585 | O=C(c1ccoc1)N1CCc2[nH]cnc2C1c1ccccc1 (centres undefined) |
| 916 | Cc1ccc(S(=O)(=O)N2CCC(c3nc(-c4ccccn4)no3)CC2)cc1 |
| 628 | Cn1c(CNC(=O)CN2CCN(Cc3ccc(F)cc3)C2=O)nc2ccccc21 |
| 639 | COCCC(=O)N1CCCn2cc(-c3cccc(C#N)c3)nc21 |
| 565 | CNC(=O)[C@@H]1CN(C(=O)Cc2ccsc2)C[C@H]1c1n[nH]c(C)n1 |
| 971 | CCOc1ccccc1N1CCN(S(=O)(=O)c2nn(C)cc2C(=O)NCCCOC(C)C)CC1 |
| 964 | CCOC(=O)C1CCN(c2c(S(=O)(=O)c3ccccc3)cnc3ccc(C)cc23)CC1 |
| 665 | CC1CCN(S(=O)(=O)c2ccc(-c3nnc(C(=O)N4CCN(C)CC4)o3)cc2)CC1 |
| 712 | COc1ccc(C(=O)NC2CCN(c3cc(-c4cccs4)[nH]n3)C2)c(C)c1 (centres undefined) |
| 1390 | O=C(Nc1ccsc1-c1nnc(C2CC2)o1)c1cccc(Br)c1 |
| 1060 | Cc1ccc(-n2nc(C)c3c(C)cc(OCC(=O)NCc4ccc5c(c4)OCO5)nc32)cc1 |
| 986 | Cc1ccc(S(=O)(=O)N2CCC(n3c(-c4ccoc4)nc4cccnc43)C2)cc1Cl (centres undefined) |
| 848 | O=C1CC(c2ccccc2)N(S(=O)(=O)c2cccc3nsnc23)CCCCCN1 (centres undefined) |
| 665 | O=C(NC1CCN(Cc2ccccc2)CC1)c1ccc2nc3ccc(Cl)cc3c(=O)n2c1 |
| 856 | COc1cc(-c2ccnc3nc(CCc4ccccc4)nn23)cc(OC)c1OC |

| RP-LC retention time [s] | SMILES |
| --- | --- |
| 892 | COc1ccccc1CNC(=O)C1CCCN(S(=O)(=O)c2cc(-c3noc(C)n3)cs2)C1 (centres undefined) |
| 773 | O=C(c1ccoc1)N1CCC(c2nc(-c3ccccc3)no2)C1 (centres undefined) |
| 936 | CCOc1ccc(NC(=O)Cn2c(=O)cc(-c3nc(CC)no3)c3ccccc32)cc1 |
| 842 | Cc1nc2nc(-c3ccccc3)nn2c(C)c1CC(=O)N(C)Cc1ccccc1 |
| 640 | Cc1ccc(-c2nc(CN3CCOCC3)c(C)o2)cc1 |
| 853 | O=C(CSc1n[nH]c(-c2ccc(F)cc2)n1)Nc1ccc(F)cc1F |
| 864 | Cc1cc(S(=O)(=O)N2CC[C@H](n3c(=O)n(C)c4cccnc43)C2)ccc1F |
| 824 | CCCn1c(-c2cccc(C(=O)NC(C)c3ccccc3)c2)nc2cccnc21 (centres undefined) |
| 873 | CC1CN(S(=O)(=O)c2cccc(-c3cn4cc(Cl)ccc4n3)c2)CC(C)O1 (centres undefined) |
| 685 | COc1ccc(-c2cn3cccnc3n2)cc1NC(=O)c1ccccc1Br |
| 648 | Cc1ccc(C(=O)NC(C)C(=O)Nc2nc3ccccc3[nH]2)cc1 (centres undefined) |
| 620 | CCc1ccc2c(c1)cc(S(=O)(=O)c1ccccc1)c(=O)n2CC(=O)N1CCCCC1 |
| 871 | COc1ccc(Cl)cc1NC(=O)N1CCC(n2cnc3ccc(F)cc3c2=O)CC1 |
| 675 | CCN1CCN(c2ccc(-c3nc(-c4ccccc4)no3)cn2)CC1 |
| 1040 | Cc1nc(C2(C)CCN(S(=O)(=O)c3ccc(Cl)cc3C)CC2)no1 |
| 1020 | CC(C)n1c(=O)sc2cc(S(=O)(=O)N3CCC(C(=O)Nc4ccc(F)c(F)c4)CC3)ccc21 |
| 575 | CCN(CC)S(=O)(=O)c1ccc(C)c(NC(=O)c2ccccc2C(=O)O)c1 |
| 890 | CCn1cc2c(n1)c(=O)n(Cc1ccccc1)c(=O)n2CC(=O)NCc1ccccc1Br |
| 845 | CC(C)CN1C(=O)CCc2cc(NS(=O)(=O)c3ccccc3F)ccc21 |
| 848 | CCn1c(CCC(=O)NCc2ccc(F)cc2)nc2c(C)cccc2c1=O |
| 846 | Cc1cc(NC(=O)CSc2c(-c3ccccc3)[nH]c3ccccc23)no1 |
| 1140 | COc1cccc(-c2nc(-c3ccc4c(c3)oc(=O)n4C(C)C)no2)c1OC |
